# Values joined by “and” are separate entries in the source; they are usually repeats but may differ in a detail not shown here. Identical values can stand only once.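 48-hour exposure; five concentrations; linearly interpolated endpoints. Abbreviation: GI50, concentration required for 50% inhibition of growth. TGI marks complete inhibition of growth.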 *1 amine or outer side, *2 acyl side, *3 side chain or, on linkers, in order; H or OH if unused. Where a SMILES comes first, the peptide text is derived from it. Bridges are numbered along the chain shown (N, C = ends). [ ]: non-standard residue; d: D form. The star is where a group is joined. ξ: configuration not given here. Phe(3,5-F2) = N[C@@H](Cc1cc(F)cc(F)c1)C(=O)O; ξThr(3S) = C[C@H](O[*:3])C(N[*:1])C(=O)[*:2]; Pro(4R-Me) = C[C@H]1CN[C@H](C(=O)O)C1; Pip = O=C(O)[C@@H]1CCCCN1; X1 = Cc1ccc(N*)c(F)c1; CO = O=C([*:1])[*:2]
# Test system: MDA-MB-468 breast
# Experiment: NCI anticancer screen, dose series, 48 h
Compound,GI50,TGI
CCn1c(-c2nonc2N)nc2cnc(Oc3cccc(NC(=O)c4ccc(OCCN5CCOCC5)cc4)c3)cc21,1.13 µM,19.9 µM
CN(C)CCN1C(=O)c2cccc3cc(N)cc(c23)C1=O,2.95 µM,11.9 µM
Cc1ccc(NC(=O)c2ccoc2)cc1-c1ccc(C(=O)NCC2CC2)cc1,6.37 µM,> 25 µM
COc1cc(-c2csc(NC(=O)Nc3ccc(Cl)cc3)n2)cc(OC)c1OC,2.96 µM,9.35 µM
CCN(Cc1ccccc1)c1ccc(/C=C2\COc3ccccc3C2=O)cc1,438 µM,> 1000 µM
O=C(O)CN(CCN(CC(=O)O)CC(=O)O)CCN(CC(=O)O)CC(=O)O,4.03 µM,16.4 µM
COc1ccc(-c2nc(-c3nc4cc(Cl)c(Cl)cc4[nH]3)c3ccccn23)cc1,5.04 µM,> 100 µM
Cc1ccc(/C=C/C(=O)c2ccc(F)cc2)s1,2.97 µM,16.4 µM
CCCN1CCC(Oc2cc(Nc3nc(Nc4cccc(F)c4C(N)=O)c4cc[nH]c4n3)c(OC)cc2Cl)CC1,0.537 µM,1.35 µM
COCCn1c(Nc2ccc(C(=O)NO)cc2)nc2ccccc21,3.43 µM,16 µM
c1ccc2[nH]c(-c3ccc(Nc4nc(N5CCCC5)nc5[nH]ncc45)cc3)nc2c1,0.277 µM,1.21 µM
COc1ccc(-c2nn3ncccc3c2-c2ccnc(Nc3ccc(F)c(F)c3)n2)cc1,6 µM,> 18.9 µM
C#C[C@]1(O)CC[C@H]2[C@@H]3CC=C4c5sc(Nc6cc(C)cc(C)c6)nc5CC[C@]4(C)[C@H]3CC[C@@]21C,2.54 µM,8.69 µM
CC(=O)Nc1ccc(CC[C@H]2CCC/C=C/[C@@H]3C[C@H](O)C[C@H]3[C@H](O)/C=C/C(=O)O2)cc1,0.0213 µM,0.0503 µM
Clc1ccc2c(NC3CCC(NC4CCCCC4)CC3)ccnc2c1 (configuration not stated),1.68 µM,8.1 µM
CN1CCC2(CC1)C(=O)Nc1cc(NC(=O)c3ccc4c(c3)C[C@@H]3C(C)(C)[C@H](O)[C@H](F)C[C@@]3(C)O4)ccc12,0.74 µM,11.7 µM
C=CC(=O)N1CCN([C@@H](CC2CC2)c2ccc([C@H](C)Nc3ncc4c(n3)N(CC)C(=O)OC4)cc2)CC1,3.3 µM,13.8 µM
Nc1nc(N)c2cc(S(=O)(=O)c3cccc(C(F)(F)F)c3)ccc2n1,2.34 µM,> 100 µM
Cc1ccc(-c2nnc(SCc3ccc(O)c4ncccc34)o2)cc1,1.88 µM,> 100 µM
O=C(Nc1ccccc1/C=C/c1n[nH]c2ccccc12)c1ccccc1,6.35 µM,20.4 µM

Compound,GI50,TGI
COc1cccc2c1C(=O)c1c(O)c3c(c(O)c1C2=O)C[C@@](O)(C(=O)CO)C[C@@H]3OC1CC(N2CCOCC2)C(O)C(C)O1 (some centres not stated),0.0369 µM,0.216 µM
COc1ccc(C2c3cc4c(cc3OC(N3CCOCC3)C2C)OCO4)cc1OC (configuration not stated),7.56 µM,> 100 µM
Clc1cccc(-c2cc(-c3ccc4c(c3)OCCO4)[nH]n2)c1,10.9 µM,57.8 µM
CN1CCN(CCCOC(=O)c2c3c(n4ccccc24)C(=O)c2ncccc2C3=O)CC1,1.88 µM,20.6 µM
CCOc1ccc2nc3cc(N)ccc3c(N)c2c1,0.268 µM and 0.135 µM,0.972 µM and 0.493 µM
N#CSc1c[nH]c2ccc(/C=C/C(=O)/C=C(O)/C=C/c3ccc4[nH]cc(SC#N)c4c3)cc12,2.06 µM,6.67 µM
"Cc1ccc(NC(=O)N[C@@H](Cc2cc(F)cc(F)c2)C(=O)NC2C(=O)N3CCC[C@H]3C(=O)N3CCCC[C@H]3C(=O)N[C@@H](C)C(=O)N3C[C@H](C)C[C@H]3C(=O)O[C@H]2C)c(F)c1 (stereo partly drawn) ({X1-CO}-[Phe(3,5-F2)][ξThr(3S)]P[Pip]A[Pro(4R-Me)]; ester 2-C)",0.174 µM and 0.0874 µM,–
Cc1[nH]nc2ncc(C#Cc3cncc(C(=O)Nc4ccc(CN5CCN(C)CC5)c(C(F)(F)F)c4)c3)cc12,0.141 µM,0.911 µM
Cc1cc(NC(=O)NCCCOc2ccc(N3C(N)=NC(N)=NC3(C)C)cc2Cl)ccc1S(=O)(=O)F,0.638 µM,19.7 µM
CC[C@@H]1C(=O)N(C)c2cnc(Nc3ccc(C(=O)NC4CCC(N5CCN(CC6CC6)CC5)CC4)cc3OC)nc2N1C(C)C (some centres not stated),0.00331 µM and < 0.01 µM,0.121 µM
Clc1ccc2c(NCCCCNc3nc(N4CCOCC4)nc4ccccc34)ccnc2c1,2.82 µM,7.97 µM
CCCCCCCCCCCC(c1ccccc1)[N+](C)(C)C (configuration not stated),0.257 µM,1.35 µM
CCCCCCCCCCCC1=NC(C)(C)CN1C(C)C,1.66 µM,3.8 µM
CCCCCOC(=O)c1c(C)[nH]c(/C=C2\N=C(c3ccc[nH]3)C=C2OC)c1C,0.0546 µM,1.32 µM
C=CCn1c(SCC(=O)Nc2ccc(C(=O)/C=C/c3cc(OC)c(OC)c(OC)c3)cc2)nnc1-c1cc(OC)c(OC)c(OC)c1,2.45 µM,6.66 µM
CN1CCN(c2ccc3nc(-c4[nH]ncc4Nc4ncnc5[nH]ccc45)[nH]c3c2)CC1,0.197 µM,0.487 µM
CN1CCN(c2cc(F)c(NC3=C(Cl)C(=O)c4ncccc4C3=O)c(F)c2)CC1,1.01 µM,2.61 µM
C=C(C)[C@@H]1CC[C@]2(C(=O)OC)CC[C@]3(C)[C@H](CC[C@@H]4[C@@](C)(CCc5nn[nH]n5)[C@H](C(=C)C)CC[C@]43C)[C@@H]12,13.8 µM,36.4 µM
CC(C)Cn1cnc2c(N)nc3ccccc3c21,12.4 µM,> 62.1 µM

# From PubChem BioAssay (NCI)
